Patent US20100144779A1, “Marine Alkalod Makaluvamines and Derivatives Thereof” (THE UAB RESEARCH FOUNDATION, priority 2007, published 2010)

Legend:
[1] = test system: female, athymic nude mice; conditions: 8, 20 or 40 mg/kg intra-peritoneally, 1 time per week for 3 weeks
Experimental: To evaluate the potential toxicity of the makaluvamine compounds disclosed, compound 4c was identified for testing in a mouse model. […] Four groups of 5 female, athymic nude mice (Federick Cancer Research, Rockville, Md.) were injected intra-peritoneally, at doses of 8, 20 or 40 mg/kg of compounds 4c (treatment group) or vehicle only (control group). […] Compound 4c was injected at its respective dose in a 200 μl volume of saline:DMSO (100 μl:100 μl). The vehicle only group was injected with 200 μl saline:DMSO. Injections were given 1 time per week for 3 weeks. […] Mice in each groups were evaluated for survival and weight gain/loss during the treatment period.

topoisomerase II = molecular target: T1, topoisomerase II (Homo sapiens, UniProt P11388); assay: Topoisomerase II drug screening kit (relaxation of plasmid DNA); assay type: biochemical; set-up: key to Topoisomerase II Inhibition: — none; + low; ++ moderate; +++ strong; conditions: for Topoisomerase II Inhibition: 100 μM drug compound, topoisomerase II (4U), 500 ng plasmid DNA; for inhibition of topoisomerase II catalytic activity (in words): 100 μM makaluvamine derivative
T1 construct: purchased TopoGEN, Inc., Port Orange, Fla
T1 sequence (P11388 whole entry): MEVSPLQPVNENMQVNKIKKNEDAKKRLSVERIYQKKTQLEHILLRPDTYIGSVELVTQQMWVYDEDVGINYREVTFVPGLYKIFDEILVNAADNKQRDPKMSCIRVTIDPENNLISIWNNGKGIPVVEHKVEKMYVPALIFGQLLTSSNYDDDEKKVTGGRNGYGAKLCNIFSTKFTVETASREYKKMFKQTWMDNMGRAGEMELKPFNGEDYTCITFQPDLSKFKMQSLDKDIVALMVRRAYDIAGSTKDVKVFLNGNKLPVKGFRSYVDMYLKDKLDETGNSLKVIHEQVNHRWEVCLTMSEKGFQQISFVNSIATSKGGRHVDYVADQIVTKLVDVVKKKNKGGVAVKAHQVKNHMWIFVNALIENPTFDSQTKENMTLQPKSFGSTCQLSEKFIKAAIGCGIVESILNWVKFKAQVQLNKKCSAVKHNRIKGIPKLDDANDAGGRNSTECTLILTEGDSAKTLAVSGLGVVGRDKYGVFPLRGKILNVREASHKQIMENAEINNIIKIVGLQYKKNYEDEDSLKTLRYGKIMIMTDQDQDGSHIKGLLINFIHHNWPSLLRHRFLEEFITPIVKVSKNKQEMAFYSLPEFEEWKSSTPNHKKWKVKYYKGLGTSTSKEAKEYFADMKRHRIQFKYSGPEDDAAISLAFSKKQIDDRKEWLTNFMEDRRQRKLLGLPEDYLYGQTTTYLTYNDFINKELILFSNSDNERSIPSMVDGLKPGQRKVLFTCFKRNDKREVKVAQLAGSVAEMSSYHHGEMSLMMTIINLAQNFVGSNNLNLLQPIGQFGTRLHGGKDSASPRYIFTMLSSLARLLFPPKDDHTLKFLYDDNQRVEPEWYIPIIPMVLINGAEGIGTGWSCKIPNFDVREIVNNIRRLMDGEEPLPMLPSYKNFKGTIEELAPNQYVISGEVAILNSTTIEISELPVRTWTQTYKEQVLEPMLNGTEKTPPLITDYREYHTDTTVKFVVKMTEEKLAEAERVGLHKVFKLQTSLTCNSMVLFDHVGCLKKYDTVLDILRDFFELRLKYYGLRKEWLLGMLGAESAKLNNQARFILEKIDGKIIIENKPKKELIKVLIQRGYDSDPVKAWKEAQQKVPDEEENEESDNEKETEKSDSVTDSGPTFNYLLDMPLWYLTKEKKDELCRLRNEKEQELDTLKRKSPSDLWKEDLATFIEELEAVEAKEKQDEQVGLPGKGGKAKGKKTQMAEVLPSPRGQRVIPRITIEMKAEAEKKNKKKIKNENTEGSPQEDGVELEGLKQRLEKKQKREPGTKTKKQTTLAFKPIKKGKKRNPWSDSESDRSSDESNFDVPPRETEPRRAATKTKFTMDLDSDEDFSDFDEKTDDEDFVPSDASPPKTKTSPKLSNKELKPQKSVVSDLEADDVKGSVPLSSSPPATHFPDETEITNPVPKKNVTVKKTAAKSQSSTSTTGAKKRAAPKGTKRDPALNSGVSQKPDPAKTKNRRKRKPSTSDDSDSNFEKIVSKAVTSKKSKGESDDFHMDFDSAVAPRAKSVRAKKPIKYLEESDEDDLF
Text: In order to determine the effect of the makaluvamine derivatives of the present disclosure, the synthesized makaluvamine derivatives were screened for their ability to inhibit topoisomerase II activity in vitro. Topoisomerase II functions by generating a double-stranded DNA break followed by resealing of the break. Topoisomerase II inhibitors interfere with the breakage-rejoining reaction thereby trapping the enzyme in a cleavage complex. In order to determine if the disclosed makaluvamine derivatives inhibited topoisomerase II activity, nine of the derivatives were tested for topoisomerase II inhibitory activity using a topoisomerase-II drug screening kit (TopoGEN, Inc., Port Orange, Fla.) according to the manufacturer's instructions. The screening kit uses a supercoiled plasmid DNA substrate (pRYG) which contains one topoisomerase II cleavage/recognition site. […] Relaxed DNA was separated using non-ethidium bromide (EtBr) agarose gels, then stained with EtBr and quantified using Kodak Gel Logic Imaging System and Molecular Imaging software (Eastman Kodak Co., Rochester, N.Y.). Inhibition of relaxation of plasmid DNA or catalytic activity was reported as; − none, + low, ++ moderate, or +++ strong.

p53 = assay: Protein expression, Western blot in MCF-7 cells; assay type: cell-based, human; conditions: 1 μM, 6 h (FIG. 4A)
Experimental: (§1) In FIG. 4A, MCF-7 cells were exposed to 1 μM concentration of the indicated compounds for 6 hours. Western blots were probed with antibodies specific for the proteins indicated. Numbers below each lane show densitometry readings for each lane as compared to control. […] Western blots were probed with antibodies specific for the proteins indicated.
(§2) To determine the disclosed compounds effect on protein expression in human breast cancer cells, cultured MCF-7 cells were exposed to various concentrations of the test compounds for 6 h (FIG. 4A) or 24 h (FIG. 4B). Cell lysates were fractionated with identical amounts of protein by SDS-PAGE and transferred to Bio-Rad trans-Blot nitrocellulose membranes (Bio-Rad Laboratories, Hercules, Calif.). The nitrocellulose membrane was incubated in blocking buffer (Tris-buffered saline containing 0.1% Tween 20 and 5% nonfat milk) for 1 h at room temperature, then with the appropriate primary antibody overnight at 4° C. or 2 h at room temperature with gentle shaking. Finally, the membrane was washed three times with the washing buffer (Tris-buffered saline containing 0.1% Tween 20) for 15 min, incubated with goat anti mouse/rabbit IgG-horseradish peroxidase-conjugated antibody (Bio-Rad) for 1 h at room temperature, and washed again (in triplicate). The protein of interest was detected by enhanced chemiluminescence reagents from PerkinElmer LAS, Inc (Boston, Mass.).

p21 = assay: Protein expression, Western blot in MCF-7 cells; assay type: cell-based, human; conditions: 1 μM, 6 h (FIG. 4A)
Experimental: as §1, §2

MDM2 = assay: Protein expression, Western blot in MCF-7 cells; assay type: cell-based, human; conditions: for expression of MDM2: 1 μM, 6 h (FIG. 4A)
Experimental: as §1, §2

[2] = test system: different cancer cell lines; assay: Induction of apoptosis (annexin V-FITC); assay type: cell-based, human; conditions: annexin V-FITC/PI; 0.1-25 μM, 48 hr; effect in the 1-10 μM range
Experimental: Cells in early and late stages of apoptosis were detected with an annexin V-FITC apoptosis detection kit from BioVision (Mountain View, Calif.). In brief, cells were exposed to the test compounds (0, 0.1, 1, 10, 25 μM) and incubated for 48 hr prior to analysis. Media and cells were collected and washed with serum-free media. Cells were then re-suspended in 500 μL of Annexin V binding buffer followed by addition of 5 μL Annexin VFITC and 5 μL of propidium iodide (PI). The samples were incubated in the dark for 5 min at room temperature prior to analysis. […] Cells that were positive for Annexin V-FITC alone (early apoptosis) and Annexin V-FITC and PI (late apoptosis) were counted.

A549 = assay: Cell cycle progression (propidium iodide, flow cytometry); assay type: cell-based, human; conditions: 48 hr; for G1 / G2/M / S: A549; for cell cycle arrest: lung cancer A549, dose-dependent
Experimental: (§3) To determination of the effects of the disclosed compounds on the cell cycle, 2-3×10^5 cells were exposed to the test compounds (0-5 μM) and incubated for 48 hr prior to analysis (Table 6). Cells were trypsinized, washed with PBS and fixed in 1.5 mL 95% ethanol at 4° C. overnight, followed by incubation with RNAse and staining with propidium iodide (Sigma). The DNA content was determined by flow cytometry.

H1299 = assay: as above; assay type: cell-based, human; conditions: 48 hr; for G1 / G2/M / S: H1299; for cell cycle arrest: lung cancer H1299, dose-dependent
Experimental: as §3

HCT116 = assay: as above; assay type: cell-based, human; conditions: 48 hr; for G1 / G2/M / S: HCT116
Experimental: as §3

HCT-116 p53 −/− = assay: as above; assay type: cell-based, human; conditions: 48 hr; for G1 / G2/M / S: HCT-116 p53 −/−
Experimental: as §3

Row | Compound | Topoisomerase II Inhibition (topoisomerase II) | expression of p53 (p53) | expression of p21 (p21) | expression of MDM2 (MDM2) | G1 (A549; 0.1 μM) | G2/M (A549; 0.1 μM) | S (A549; 0.1 μM) | G1 (A549; 1 μM) | G2/M (A549; 1 μM) | S (A549; 1 μM) | G1 (A549; 5 μM) | G2/M (A549; 5 μM) | S (A549; 5 μM) | cell cycle arrest (A549) | G1 (H1299; 0.1 μM) | G2/M (H1299; 0.1 μM) | S (H1299; 0.1 μM) | G1 (H1299; 1 μM) | G2/M (H1299; 1 μM) | S (H1299; 1 μM) | other results
1 | O=C1C(NCc2ccccc2)=CC2=NCCc3c[nH]c1c32 [Compound 4c] | ++ | increased the expression | decreased the expression | inhibited the expression | 60.23 | 19.41 | 20.37 | 58.62 | 19.85 | 21.53 | 47.18 | 30.35 | 22.48 | cell cycle arrest in the G2/M phase | 55.27 | 26.89 | 17.84 | 51.18 | 29.35 | 19.47 | weight changes between treatment groups [1]: No significant weight changes; weight gain/loss during the treatment period [1]: all mice gained weight; survival ([1]; observed 21 days): 100%; inhibition of topoisomerase II catalytic activity (in words) (topoisomerase II): comparable to etoposide and m-AMSA; induction of apoptosis [2]: significant induction of apoptosis; G1 (H1299; 2 μM): 30.46; G2/M (H1299; 2 μM): 49.58; S (H1299; 2 μM): 19.96; cell cycle arrest (H1299): cell cycle arrest in the G2/M phase
2 | O=C(O)C(F)(F)F.O=C1C(NCCc2ccc3c(c2)OCO3)=CC2=NCCc3c[nH]c1c32 [Compound 6] |  | increased the expression |  |  | 58.66 | 20.85 | 20.50 | 58.59 | 20.37 | 21.04 | 50.88 | 23.36 | 25.76 | cell cycle arrest in the G2/M phase | 53.99 | 30.73 | 15.28 | 57.20 | 27.57 | 15.22 | G1 (H1299; 5 μM): 35.29; G2/M (H1299; 5 μM): 41.28; S (H1299; 5 μM): 23.43; cell cycle arrest (H1299): cell cycle arrest in the G2/M phase
3 | O=C1C(NCCc2ccccc2)=CC2=NCCc3c[nH]c1c32 [Compound 4d] | + | increased the expression | increased the expression | increased the expression |  |  |  |  |  |  |  |  |  |  |  |  |  |  |  |  | inhibition of topoisomerase II catalytic activity (in words) (topoisomerase II): comparable to etoposide and m-AMSA
4 | COc1ccc(CCNC2=CC3=NCCc4c[nH]c(c43)C2=O)cc1OC.O=C(O)C(F)(F)F [Compound 20] |  | decreased the expression | decreased the expression | inhibited the expression |  |  |  |  |  |  |  |  |  |  |  |  |  |  |  |  | 
5 | CNC1=CC2=NCCc3c[nH]c(c32)C1=O [Compound 4a] | — |  |  |  |  |  |  |  |  |  |  |  |  |  |  |  |  |  |  |  | 
6 | O=C(O)C(F)(F)F.O=C1C(NCc2ccc(F)cc2)=CC2=NCCc3c[nH]c1c32 [Compound 28] |  | decreased the expression | decreased the expression | inhibited the expression | 59.91 | 20.22 | 19.87 | 57.88 | 20.14 | 21.98 | 46.78 | 25.07 | 28.14 | cell cycle arrest in the S phase | 54.23 | 25.17 | 20.60 | 46.88 | 31.82 | 21.31 | expression level of MDM2 (MDM2; 24 h (FIG. 4B)): decreased; induction of apoptosis [2]: significant induction of apoptosis; G1 (HCT116; 0.5 μM): 31.82; G2/M (HCT116; 0.5 μM): 45.04; S (HCT116; 0.5 μM): 23.14; G1 (HCT116; 1 μM): 28.40; G2/M (HCT116; 1 μM): 38.17; S (HCT116; 1 μM): 33.43; cell cycle arrest (HCT116; colon cancer HCT116, dose-dependent): cell cycle arrest in the S and G2/M phase; G1 (HCT-116 p53 −/−; 0.5 μM): 28.18; G2/M (HCT-116 p53 −/−; 0.5 μM): 49.02; S (HCT-116 p53 −/−; 0.5 μM): 22.80; G1 (HCT-116 p53 −/−; 1 μM): 25.59; G2/M (HCT-116 p53 −/−; 1 μM): 45.20; S (HCT-116 p53 −/−; 1 μM): 29.21; cell cycle arrest (HCT-116 p53 −/−; colon cancer HCT116 p53−/−, dose-dependent): cell cycle arrest in the S and G2/M phase; G1 (H1299; 2 μM): 31.52; G2/M (H1299; 2 μM): 36.36; S (H1299; 2 μM): 32.11; cell cycle arrest (H1299): cell cycle arrest in the S phase
